How the values were obtained:
[1] = Shake-flask solubility of acetaminophen in aqueous protic ionic liquid solutions (UV-vis at 243 nm); assay type: physicochemical
Experimental: The experimental solubility results were determined using a variety of techniques, including the shake-flask method. Aqueous binary mixtures based on PILs have been made utilizing an analytical balance with a 10^–4 g precision for determining the solubility results. Glass vials with a specific amount of water + PILs were filled with the extra acetaminophen. Following that, the samples were combined for 3 h and left for three days in a water bath thermostat (ED, Julabo Co., Germany) with temperature control and an uncertainty of 0.01 K. To separate the liquid and solid phases, a Hettich D-7200 centrifuge was employed (with 4000 RPM at room temperature at 10 min). An ethanol + water solution was applied to dilute the liquid phase after the saturated solutions were filtered through a […] PTFE filter. Subsequently, the drug concentration in the solutions was ascertained using a calibration curve and a UV–vis spectrometer at 243 nm.

[2] = 298.15 K, methanol + water, 0.1 methanol weight fraction; cited from earlier work

Compound: CC(=O)Nc1ccc(O)cc1 [ACP, Acetaminophen]
- solubility 10^5x1^exp ([1]; water+[DEA]La w3=0.0000 298.15 K 866 hPa): 1.839 mole fraction x10^5
- solubility 10^5x1^exp ([1]; water+[DEA]La w3=0.0000 303.15 K 866 hPa): 2.239 mole fraction x10^5
- solubility 10^5x1^exp ([1]; water+[DEA]La w3=0.0000 308.15 K 866 hPa): 2.545 mole fraction x10^5
- solubility 10^5x1^exp ([1]; water+[DEA]La w3=0.0000 313.15 K 866 hPa): 3.009 mole fraction x10^5
- solubility 10^5x1^exp ([1]; water+[DEA]La w3=0.0200 298.15 K 866 hPa): 2.492 mole fraction x10^5
- solubility 10^5x1^exp ([1]; water+[DEA]La w3=0.0200 303.15 K 866 hPa): 3.159 mole fraction x10^5
- solubility 10^5x1^exp ([1]; water+[DEA]La w3=0.0200 308.15 K 866 hPa): 3.555 mole fraction x10^5
- solubility 10^5x1^exp ([1]; water+[DEA]La w3=0.0200 313.15 K 866 hPa): 3.722 mole fraction x10^5
- solubility 10^5x1^exp ([1]; water+[DEA]La w3=0.0500 298.15 K 866 hPa): 3.181 mole fraction x10^5
- solubility 10^5x1^exp ([1]; water+[DEA]La w3=0.0500 303.15 K 866 hPa): 3.576 mole fraction x10^5
- solubility 10^5x1^exp ([1]; water+[DEA]La w3=0.0500 308.15 K 866 hPa): 3.917 mole fraction x10^5
- solubility 10^5x1^exp ([1]; water+[DEA]La w3=0.0500 313.15 K 866 hPa): 4.227 mole fraction x10^5
- solubility 10^5x1^exp ([1]; water+[DEA]La w3=0.0700 298.15 K 866 hPa): 3.452 mole fraction x10^5
- solubility 10^5x1^exp ([1]; water+[DEA]La w3=0.0700 303.15 K 866 hPa): 3.977 mole fraction x10^5
- solubility 10^5x1^exp ([1]; water+[DEA]La w3=0.0700 308.15 K 866 hPa): 4.167 mole fraction x10^5
- solubility 10^5x1^exp ([1]; water+[DEA]La w3=0.0700 313.15 K 866 hPa): 4.514 mole fraction x10^5
- solubility 10^5x1^exp ([1]; water+[DEA]La w3=0.1000 298.15 K 866 hPa): 3.849 mole fraction x10^5
- solubility 10^5x1^exp ([1]; water+[DEA]La w3=0.1000 303.15 K 866 hPa): 4.220 mole fraction x10^5
- solubility 10^5x1^exp ([1]; water+[DEA]La w3=0.1000 308.15 K 866 hPa): 4.793 mole fraction x10^5
- solubility 10^5x1^exp ([1]; water+[DEA]La w3=0.1000 313.15 K 866 hPa): 5.266 mole fraction x10^5
- solubility 10^5x1^exp ([1]; water+[DEA]La w3=0.1500 298.15 K 866 hPa): 4.290 mole fraction x10^5
- solubility 10^5x1^exp ([1]; water+[DEA]La w3=0.1500 303.15 K 866 hPa): 4.611 mole fraction x10^5
- solubility 10^5x1^exp ([1]; water+[DEA]La w3=0.1500 308.15 K 866 hPa): 5.038 mole fraction x10^5
- solubility 10^5x1^exp ([1]; water+[DEA]La w3=0.1500 313.15 K 866 hPa): 5.633 mole fraction x10^5
- solubility 10^5x1^exp ([1]; water+[DEA]La w3=0.2000 298.15 K 866 hPa): 4.669 mole fraction x10^5
- solubility 10^5x1^exp ([1]; water+[DEA]La w3=0.2000 303.15 K 866 hPa): 5.223 mole fraction x10^5
- solubility 10^5x1^exp ([1]; water+[DEA]La w3=0.2000 308.15 K 866 hPa): 5.710 mole fraction x10^5
- solubility 10^5x1^exp ([1]; water+[DEA]La w3=0.2000 313.15 K 866 hPa): 6.188 mole fraction x10^5
- solubility 10^5x1^exp ([1]; water+[MEA]La w3=0.0000 298.15 K 866 hPa): 1.839 mole fraction x10^5
- solubility 10^5x1^exp ([1]; water+[MEA]La w3=0.0000 303.15 K 866 hPa): 2.239 mole fraction x10^5
- solubility 10^5x1^exp ([1]; water+[MEA]La w3=0.0000 308.15 K 866 hPa): 2.545 mole fraction x10^5
- solubility 10^5x1^exp ([1]; water+[MEA]La w3=0.0000 313.15 K 866 hPa): 3.009 mole fraction x10^5
- solubility 10^5x1^exp ([1]; water+[MEA]La w3=0.0200 298.15 K 866 hPa): 2.750 mole fraction x10^5
- solubility 10^5x1^exp ([1]; water+[MEA]La w3=0.0200 303.15 K 866 hPa): 3.417 mole fraction x10^5
- solubility 10^5x1^exp ([1]; water+[MEA]La w3=0.0200 308.15 K 866 hPa): 3.802 mole fraction x10^5
- solubility 10^5x1^exp ([1]; water+[MEA]La w3=0.0200 313.15 K 866 hPa): 4.007 mole fraction x10^5
- solubility 10^5x1^exp ([1]; water+[MEA]La w3=0.0500 298.15 K 866 hPa): 3.256 mole fraction x10^5
- solubility 10^5x1^exp ([1]; water+[MEA]La w3=0.0500 303.15 K 866 hPa): 3.861 mole fraction x10^5
- solubility 10^5x1^exp ([1]; water+[MEA]La w3=0.0500 308.15 K 866 hPa): 4.055 mole fraction x10^5
- solubility 10^5x1^exp ([1]; water+[MEA]La w3=0.0500 313.15 K 866 hPa): 4.320 mole fraction x10^5
- solubility 10^5x1^exp ([1]; water+[MEA]La w3=0.0700 298.15 K 866 hPa): 3.884 mole fraction x10^5
- solubility 10^5x1^exp ([1]; water+[MEA]La w3=0.0700 303.15 K 866 hPa): 4.588 mole fraction x10^5
- solubility 10^5x1^exp ([1]; water+[MEA]La w3=0.0700 308.15 K 866 hPa): 4.675 mole fraction x10^5
- solubility 10^5x1^exp ([1]; water+[MEA]La w3=0.0700 313.15 K 866 hPa): 5.025 mole fraction x10^5
- solubility 10^5x1^exp ([1]; water+[MEA]La w3=0.1000 298.15 K 866 hPa): 4.380 mole fraction x10^5
- solubility 10^5x1^exp ([1]; water+[MEA]La w3=0.1000 303.15 K 866 hPa): 4.807 mole fraction x10^5
- solubility 10^5x1^exp ([1]; water+[MEA]La w3=0.1000 308.15 K 866 hPa): 5.407 mole fraction x10^5
- solubility 10^5x1^exp ([1]; water+[MEA]La w3=0.1000 313.15 K 866 hPa): 5.600 mole fraction x10^5
- solubility 10^5x1^exp ([1]; water+[MEA]La w3=0.1500 298.15 K 866 hPa): 4.962 mole fraction x10^5
- solubility 10^5x1^exp ([1]; water+[MEA]La w3=0.1500 303.15 K 866 hPa): 5.658 mole fraction x10^5
- solubility 10^5x1^exp ([1]; water+[MEA]La w3=0.1500 308.15 K 866 hPa): 6.128 mole fraction x10^5
- solubility 10^5x1^exp ([1]; water+[MEA]La w3=0.1500 313.15 K 866 hPa): 6.665 mole fraction x10^5
- solubility 10^5x1^exp ([1]; water+[MEA]La w3=0.2000 298.15 K 866 hPa): 5.589 mole fraction x10^5
- solubility 10^5x1^exp ([1]; water+[MEA]La w3=0.2000 303.15 K 866 hPa): 6.123 mole fraction x10^5
- solubility 10^5x1^exp ([1]; water+[MEA]La w3=0.2000 308.15 K 866 hPa): 6.695 mole fraction x10^5
- solubility 10^5x1^exp ([1]; water+[MEA]La w3=0.2000 313.15 K 866 hPa): 7.337 mole fraction x10^5
- solubility 10^5x1^exp ([1]; water+[TEA]La w3=0.0000 298.15 K 866 hPa): 1.839 mole fraction x10^5
- solubility 10^5x1^exp ([1]; water+[TEA]La w3=0.0000 303.15 K 866 hPa): 2.239 mole fraction x10^5
- solubility 10^5x1^exp ([1]; water+[TEA]La w3=0.0000 308.15 K 866 hPa): 2.545 mole fraction x10^5
- solubility 10^5x1^exp ([1]; water+[TEA]La w3=0.0000 313.15 K 866 hPa): 3.009 mole fraction x10^5
- solubility 10^5x1^exp ([1]; water+[TEA]La w3=0.0200 298.15 K 866 hPa): 2.161 mole fraction x10^5
- solubility 10^5x1^exp ([1]; water+[TEA]La w3=0.0200 303.15 K 866 hPa): 2.632 mole fraction x10^5
- solubility 10^5x1^exp ([1]; water+[TEA]La w3=0.0200 308.15 K 866 hPa): 2.940 mole fraction x10^5
- solubility 10^5x1^exp ([1]; water+[TEA]La w3=0.0200 313.15 K 866 hPa): 3.334 mole fraction x10^5
- solubility 10^5x1^exp ([1]; water+[TEA]La w3=0.0500 298.15 K 866 hPa): 2.597 mole fraction x10^5
- solubility 10^5x1^exp ([1]; water+[TEA]La w3=0.0500 303.15 K 866 hPa): 2.944 mole fraction x10^5
- solubility 10^5x1^exp ([1]; water+[TEA]La w3=0.0500 308.15 K 866 hPa): 3.210 mole fraction x10^5
- solubility 10^5x1^exp ([1]; water+[TEA]La w3=0.0500 313.15 K 866 hPa): 3.521 mole fraction x10^5
- solubility 10^5x1^exp ([1]; water+[TEA]La w3=0.0700 298.15 K 866 hPa): 2.908 mole fraction x10^5
- solubility 10^5x1^exp ([1]; water+[TEA]La w3=0.0700 303.15 K 866 hPa): 3.461 mole fraction x10^5
- solubility 10^5x1^exp ([1]; water+[TEA]La w3=0.0700 308.15 K 866 hPa): 3.584 mole fraction x10^5
- solubility 10^5x1^exp ([1]; water+[TEA]La w3=0.0700 313.15 K 866 hPa): 3.929 mole fraction x10^5
- solubility 10^5x1^exp ([1]; water+[TEA]La w3=0.1000 298.15 K 866 hPa): 3.094 mole fraction x10^5
- solubility 10^5x1^exp ([1]; water+[TEA]La w3=0.1000 303.15 K 866 hPa): 3.834 mole fraction x10^5
- solubility 10^5x1^exp ([1]; water+[TEA]La w3=0.1000 308.15 K 866 hPa): 4.208 mole fraction x10^5
- solubility 10^5x1^exp ([1]; water+[TEA]La w3=0.1000 313.15 K 866 hPa): 4.349 mole fraction x10^5
- solubility 10^5x1^exp ([1]; water+[TEA]La w3=0.1500 298.15 K 866 hPa): 3.958 mole fraction x10^5
- solubility 10^5x1^exp ([1]; water+[TEA]La w3=0.1500 303.15 K 866 hPa): 4.151 mole fraction x10^5
- solubility 10^5x1^exp ([1]; water+[TEA]La w3=0.1500 308.15 K 866 hPa): 4.940 mole fraction x10^5
- solubility 10^5x1^exp ([1]; water+[TEA]La w3=0.1500 313.15 K 866 hPa): 5.167 mole fraction x10^5
- solubility 10^5x1^exp ([1]; water+[TEA]La w3=0.2000 298.15 K 866 hPa): 4.309 mole fraction x10^5
- solubility 10^5x1^exp ([1]; water+[TEA]La w3=0.2000 303.15 K 866 hPa): 4.778 mole fraction x10^5
- solubility 10^5x1^exp ([1]; water+[TEA]La w3=0.2000 308.15 K 866 hPa): 5.362 mole fraction x10^5
- solubility 10^5x1^exp ([1]; water+[TEA]La w3=0.2000 313.15 K 866 hPa): 5.751 mole fraction x10^5
- ACP solubility [2]: 2.65 × 10^–3 mole fraction
